From the NIST ThermoML archive (doi:10.1016/j.jct.2005.08.001)
± gives the expanded uncertainty stated by the source.

Legend:
[1] = 313.15 K, Liquid; for mass density: 101.33 kPa, Pycnometric method; for vapor or sublimation pressure: Closed cell (Static) method
[2] = refractive index (Na D-line) (dimensionless); settings: 298.15 K; 101.33 kPa; Liquid; Standard Abbe refractometry

Compound | mass density [1] [kg/m3] | vapor or sublimation pressure [1] [kPa] | refractive index [2]
CC(=O)N(C)C [N,N-dimethylethanamide] | 922.4 ± 0.6 | 0.658 ± 0.01 | 1.43556 ± 0.00075
CCO [ethanol] | 772.2 ± 0.5 | 17.89 ± 0.087 | 1.3592 ± 0.00075
O [water] |  | 7.375 ± 0.025 | 
